US20220340875A1, “METHODS OF CULTURING AND/OR EXPANDING STEM CELLS AND/OR LINEAGE COMMITTED PROGENITOR CELLS USING AMIDO COMPOUNDS” (IDEAYA BIOSCIENCES, INC., priority 2018, published 2022)

These molecules were tested against T1, hAhR (Homo sapiens, UniProt P35869) (assay: AhR DRE-luciferase reporter transcriptional assay, antagonist mode (TCDD-induced)). Details: HEPG2 DRE-Luc cells, 3 nM TCDD, 24 hour incubation, relative IC50.
T1 construct: Stably integrated DRE-luciferase cell lines were generated by transducing the both cell lines with Cignal XRE luciferase reporter (Qiagen) lentiviral particles; endogenous in cells
T1 sequence (P35869 11-848): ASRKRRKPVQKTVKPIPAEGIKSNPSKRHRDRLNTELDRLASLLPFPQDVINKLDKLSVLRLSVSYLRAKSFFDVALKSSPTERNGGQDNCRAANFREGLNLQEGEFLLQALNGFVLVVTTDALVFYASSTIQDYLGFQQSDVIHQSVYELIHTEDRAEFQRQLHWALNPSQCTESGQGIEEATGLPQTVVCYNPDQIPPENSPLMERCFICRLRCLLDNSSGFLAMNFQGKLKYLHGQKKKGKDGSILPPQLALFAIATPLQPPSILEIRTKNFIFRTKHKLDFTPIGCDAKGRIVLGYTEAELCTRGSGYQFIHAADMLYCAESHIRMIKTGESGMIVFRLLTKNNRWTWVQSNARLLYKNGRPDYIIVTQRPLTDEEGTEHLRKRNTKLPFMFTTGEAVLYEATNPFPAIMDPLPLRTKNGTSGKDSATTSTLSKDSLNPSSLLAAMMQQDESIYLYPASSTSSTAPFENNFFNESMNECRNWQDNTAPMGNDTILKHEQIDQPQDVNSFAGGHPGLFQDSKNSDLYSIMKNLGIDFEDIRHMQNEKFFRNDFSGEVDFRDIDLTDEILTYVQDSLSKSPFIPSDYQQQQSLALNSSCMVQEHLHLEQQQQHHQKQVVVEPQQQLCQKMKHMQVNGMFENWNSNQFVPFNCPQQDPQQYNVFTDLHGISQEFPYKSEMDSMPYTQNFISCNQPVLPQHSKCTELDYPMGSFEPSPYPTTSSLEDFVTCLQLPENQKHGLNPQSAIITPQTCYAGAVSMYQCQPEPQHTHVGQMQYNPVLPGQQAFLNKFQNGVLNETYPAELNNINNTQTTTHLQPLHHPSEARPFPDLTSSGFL
Assay type: cell-based
In short: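 HepG2 cells carrying a stably integrated DRE-luciferase reporter, in OptiMEM with 0.5% FBS; semi-log compound doses added with 3 nM TCDD, 24 h incubation, firefly luciferase read-out. Percent maximal activity normalised between vehicle ± TCDD; relative IC50 taken as half-reduction between curve plateaus.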

IC50 [nM]	Compound
1000 to 10000	Cc1cc(-c2ccc3c(C(F)(F)F)cn(C)c3c2)ccc1NC(=O)c1ccnn1C [Example 086, 1-methyl-N-(2-methyl-4-(1-methyl-3-(trifluoromethyl)-1H-indol-6-yl)phenyl)-1H-pyrazole-5-carboxamide]
1000 to 10000	Cc1cc(-c2ccc3c(ccn3C)n2)ccc1NC(=O)c1ccnn1C [Example 085, 1-methyl-N-(2-methyl-4-(1-methyl-1H-pyrrolo[3,2-b]pyridin-5-yl)phenyl)-1H-pyrazole-5-carboxamide]
1000 to 10000	Cc1cc(-c2ccc3cc(F)ccc3n2)ccc1NC(=O)c1ccnnc1 [Example 029, N-(4-(6-fluoroquinolin-2-yl)-2-methylphenyl)pyridazine-4-carboxamide]
< 200	Cc1cc(-c2ncc3nc(C(F)(F)F)cc(C)c3n2)ccc1N(C)C(=O)c1cc(C(N)=O)nn1CC#N [Example 198, 1-(cyanomethyl)-N5-methyl-N5-(2-methyl-4-(8-methyl-6-(trifluoro-methyl)pyrido[3,2-d]pyrimidin-2-yl)phenyl)-1H-pyrazole-3,5-dicarboxamide]
< 200	CCN(C(=O)c1ccnn1C)c1ccc(-c2ccc3cc(C(F)(F)F)ccc3n2)cc1C [Example 004, N-Ethyl-1-methyl-N-(2-methyl-4-(6-(trifluoromethyl)quinolin-2-yl)phenyl)-1H-pyrazole-5-carboxamide]
200 to 500	Cc1cc(NC(=O)c2c(C)cnn2C)c(F)cc1-c1ccc2cc(C(F)(F)F)ccc2n1 [Example 207, N-(2-fluoro-5-methyl-4-(6-(trifluoromethyl)quinolin-2-yl)phenyl)-1,4-dimethyl-1H-pyrazole-5-carboxamide]
< 200	Cc1cc(-c2ccc3cccc(C)c3n2)ccc1NC(=O)c1ccnn1C [Example 020, 1-Methyl-N-(2-methyl-4-(8-methylquinolin-2-yl)phenyl)-1H-pyrazole-5-carboxamide]
1000 to 10000	Cc1cc(-c2ccc3cc(F)ccc3n2)ccc1NC(=O)N1CCOCC1 [Example 041, N-(4-(6-fluoroquinolin-2-yl)-2-methylphenyl)morpholine-4-carboxamide]
< 200	Cc1cc(-c2ncc3nc(C(F)(F)F)ccc3n2)ccc1N(C)C(=O)c1ccnn1C [Example 136, N,1-dimethyl-N-(2-methyl-4-(6-(trifluoromethyl)pyrido[3,2-d]pyrimidin-2-yl)phenyl)-1H-pyrazole-5-carboxamide]
500 to 1000	Cc1cc(-c2ccc3cc(F)ccc3n2)ccc1NC(=O)c1ccccc1 [Example 023, N-(4-(6-fluoroquinolin-2-yl)-2-methylphenyl)benzamide]
1000 to 10000	Cc1cc(-c2ccc3c(ccn3CC(F)(F)F)n2)ccc1NC(=O)c1ccnn1C [Example 084, 1-methyl-N-(2-methyl-4-(1-(2,2,2-trifluoroethyl)-1H-pyrrolo[3,2-b]pyridin-5-yl)phenyl)-1H-pyrazole-5-carboxamide]
< 200	Cc1cc(-c2ccc3cc(C(F)(F)F)cc(C)c3n2)ccc1N(C)C(=O)c1ccnn1CCO [Example 201, 1-(2-hydroxyethyl)-N-methyl-N-(2-methyl-4-(8-methyl-6-(trifluoromethyl)-quinolin-2-yl)phenyl)-1H-pyrazole-5-carboxamide]
500 to 1000	Cn1nccc1C(=O)Nc1ccc(-c2ccc3cc(F)ccc3n2)cc1F [Example 066, N-(2-fluoro-4-(6-fluoroquinolin-2-yl)phenyl)-1-methyl-1H-pyrazole-5-carboxamide]
< 200	Cc1cc(-c2ccc3cccc(Cl)c3n2)ccc1NC(=O)c1ccnn1C [Example 012, N-(4-(8-chloroquinolin-2-yl)-2-methylphenyl)-1-methyl-1H-pyrazole-5-carboxamide]
200 to 500	Cc1cc(-c2ncc3ccn(CC(F)(F)F)c3n2)ccc1NC(=O)c1ccnn1C [Example 091, 1-Methyl-N-(2-methyl-4-(7-(2,2,2-trifluoroethyl)-7H-pyrrolo[2,3-d]pyrimidin-2-yl)phenyl)-1H-pyrazole-5-carboxamide]
500 to 1000	Cc1cc(-c2ncc3nc(C(F)(F)F)ccc3n2)ccc1NC(=O)c1ccnn1CC(C)O (centres unmarked) [Example 193, 1-(2-hydroxypropyl)-N-(2-methyl-4-(6-(trifluoromethyl)pyrido[3,2-d]pyrimidin-2-yl)phenyl)-1H-pyrazole-5-carboxamide]

IC50 [nM]	Compound
1000 to 10000	Cc1cc(-c2ccc3cc(-c4nnn[nH]4)ccc3n2)ccc1NC(=O)c1ccnn1C [Example 063, N-(4-(6-(1H-tetrazol-5-yl)quinolin-2-yl)-2-methylphenyl)-1-methyl-1H-pyrazole-5-carboxamide]
< 200	Cc1cc(-c2ncc3nc(C(F)(F)F)ccc3n2)ccc1NC(=O)c1ccnn1C [Example 135, 1-methyl-N-(2-methyl-4-(6-(trifluoromethyl)pyrido[3,2-d]pyrimidin-2-yl)phenyl)-1H-pyrazole-5-carboxamide]
< 200	Cn1nccc1C(=O)Nc1ccc(-c2ncc3nc(C(F)(F)F)ccc3n2)cc1F [Example 137, N-(2-fluoro-4-(6-(trifluoromethyl)pyrido[3,2-d]pyrimidin-2-yl)phenyl)-1-methyl-1H-pyrazole-5-carboxamide]
1000 to 10000	Cc1cc(-c2ccc3c(C(F)(F)F)cn(C)c3c2)ccc1N(C)C(=O)c1ccnn1C [Example 087, N,1-dimethyl-N-(2-methyl-4-(1-methyl-3-(trifluoromethyl)-1H-indol-6-yl)phenyl)-1H-pyrazole-5-carboxamide]
< 200	Cc1c(-c2ncc3cc(C(F)(F)F)ccc3n2)ccc(N(C)C(=O)c2ccnn2C)c1F [Example 114, N-(2-fluoro-3-methyl-4-(6-(trifluoromethyl)quinazolin-2-yl)phenyl)-N,1-dimethyl-1H-pyrazole-5-carboxamide]
< 200	Cc1cc(-c2ncc3cc(C(F)(F)F)ccc3n2)ccc1NC(=O)c1c(C)cnn1C [Example 215, 1,4-dimethyl-N-(2-methyl-4-(6-(trifluoromethyl)quinazolin-2-yl)phenyl)-1H-pyrazole-5-carboxamide]
< 200	Cn1nccc1C(=O)Nc1ccc(-c2ccc3nc(C(F)(F)F)ccc3n2)cc1F [Example 103, N-(2-fluoro-4-(6-(trifluoromethyl)-1,5-naphthyridin-2-yl)phenyl)-1-methyl-1H-pyrazole-5-carboxamide]
1000 to 10000	Cc1cc(-c2ccc3cc(C(F)(F)F)ccc3n2)c(C)cc1NC(=O)c1nn(C)cc1C [Example 208, N-(2,5-dimethyl-4-(6-(trifluoromethyl)quinolin-2-yl)phenyl)-1,4-dimethyl-1H-pyrazole-3-carboxamide]
1000 to 10000	Cc1cc(-c2ncc3nc(C(F)(F)F)cc(C)c3n2)ccc1N(C)C(=O)c1cc(C(=O)O)nn1CC#N [Example 197, 1-(cyanomethyl)-5-(methyl(2-methyl-4-(8-methyl-6-(trifluoromethyl)-pyrido[3,2-d]pyrimidin-2-yl)phenyl)carbamoyl)-1H-pyrazole-3-carboxylic acid]
< 200	COc1cnccc1C(=O)Nc1ccc(-c2ncc3cc(C(F)(F)F)ccc3n2)cc1C [Example 144, 3-methoxy-N-(2-methyl-4-(6-(trifluoromethyl)quinazolin-2-yl)phenyl)isonicotinamide]
500 to 1000	Cc1cc(NC(=O)c2ccnn2C)ccc1-c1ccc2cc(F)ccc2n1 [Example 050, N-(4-(6-fluoroquinolin-2-yl)-3-methylphenyl)-1-methyl-1H-pyrazole-5-carboxamide]
1000 to 10000	Cc1cc(-c2cc(C)c3ccccc3n2)ccc1NC(=O)OC(C)(C)C [Example 015, tert-butyl (2-methyl-4-(4-methylquinolin-2-yl)phenyl)carbamate]
1000 to 10000	Cc1cc(-c2ccc3cc(F)cc(C(C)C)c3n2)ccc1NC(=O)c1ccnn1C [Example 055, N-(4-(6-fluoro-8-isopropylquinolin-2-yl)-2-methylphenyl)-1-methyl-1H-pyrazole-5-carboxamide]
500 to 1000	Cc1cc(-c2ccc3c(ccn3C)c2)ccc1NC(=O)c1ccnn1C [Example 083, 1-methyl-N-(2-methyl-4-(1-methyl-1H-indol-5-yl)phenyl)-1H-pyrazole-5-carboxamide]
1000 to 10000	Cc1cc(-c2ccc3cc(C4CC4)ccc3n2)ccc1NC(=O)c1ccnn1C [Example 068, N-(4-(6-cyclopropylquinolin-2-yl)-2-methylphenyl)-1-methyl-1H-pyrazole-5-carboxamide]
< 200	COc1cnccc1C(=O)N(C)c1ccc(-c2ncc3cc(C(F)(F)F)ccc3n2)cc1C [Example 145, 3-Methoxy-N-methyl-N-(2-methyl-4-(6-(trifluoromethyl)quinazolin-2-yl)phenyl)isonicotinamide]
